Patent US20250345295A1, “LMK235 COMPOSITIONS AND METHODS” (UNM Rainforest Innovations, priority 2024, published 2025)
Entries after “also recorded” stand apart in the source; their conditions may differ.

What was measured:
Type in all cases: in vivo, mouse
[1] = test system: C57BL/6 mice with TIC model; assay: von Frey mechanical threshold, TIC trigeminal nerve injury model
Excerpt: Mice underwent the TIC nerve injury surgery, a simplified non-ligation variant of the trigeminal CCI-ION model previously described (Lyons et al., Neuroscience 2015 Jun. 4; 295:126-138; Ma et al., MolBrain 2012 Dec. 28; 5:44). Briefly, mice were anesthetized with isoflurane (3-4%) and a piece of chromic gut suture (2 mm length, 6-0) was placed parallel to the infraorbital nerve (ION) adjacent to the maxillary bone infraorbital fissure at a site just under the lower eyelid. Naïve controls underwent anesthesia only. The chronic trigeminal inflammatory compression (TIC) nerve injury model induces measurable changes in evoked reflexive or higher order pain-like and anxiety-like behaviors but are not otherwise detectable.
The HDAC4/5 inhibitor LMK235 (s.c., 5 mg/kg)(N-[[6-(Hydroxyamino)-6-oxohexyl]oxy]-3,5-dimethyl-benzamide) (Cayman Chemical Co., Ann Arbor, MI) was used at previously published dilutions (Bennett G J, Xie Y K. Pain 1988 April; 33:87-107). […] All treatments with the HDACi (5 mg/kg) or vehicle were given daily for seven consecutive days in the neck scruff (s.c.) for comparisons to naïve control mice.
In the first post-treatment study, male C57B1/6 mice were subcutaneously (s.c.) injected daily for seven days beginning in week 3 following the trigeminal nerve insult induced surgically. Withdrawal thresholds were tested weekly with von Frey fiber stimulation on the snout. One TIC mouse behaving erratically on day 1-7 was eliminated from the study.
In the second post-treatment study, C57B1/6 mice were treated daily for 14 days in week 8 and week 9 after the nerve insult. Withdrawal thresholds were determined weekly with von Frey fiber stimulation on the snout until experiment end.
Testing was done by an observer blinded to study group. Von Frey assessment of snout withdrawal threshold was conducted prior to and at least once a week after nerve injury to confirm development of craniofacial neuropathic pain. […]
Mechanical and cold sensitivity was modified for face as previously described (Montera M A, Westlund K N, Bio-protocol2020 April 20; 10(8):e3591-e3591; Lyons et al., Neuroscience 2015 Jun. 4; 295:126-138; Ma et al., Mol Brain 2012 Dec. 28; 5:44; Montera et al., Channels (Austin). 2021 December; 15(1):31-37). Briefly, animals were gently restrained and the mechanical threshold for nocifensive head withdrawal was determined using calibrated von Frey filaments (0.008 g-6.0 g) using the Up-Down method (Chaplan et al., J Neurosci Methods 1994 July; 53(1):55-63; FIG. 2). Cold sensitivity was determined by applying a 10° C. cold coil to the ION's receptive field and measuring the time until an animal withdrew its head (Montera et al., Channels (Austin). 2021 December; 15(1):31-37).

[2] = test system: BALBc mice with FRICT-ION nerve injury; assay: von Frey mechanical threshold, FRICT-ION trigeminal nerve injury model; settings: male and female BALBc FRICT-ION mice, 5 mg/kg s.c. daily in week 3, vs vehicle
Excerpt: The FRICT-ION chronic neuropathic pain model combines the chemical irritation of chromic gut suture with some physical compression of the maxillary branch (V2) of the trigeminal nerve. FRICT-ION model was induced in 9-week-old mice anesthetized briefly with isoflurane (2-3%). Intraoral surgical incision was made with a small scalpel puncture at the buccal cheek crease. A piece of chromic gut suture (3 mm length, 4-0) was placed parallel to the infraorbital nerve (ION) and pushed into the tight space to follow the trigeminal nerve as it passes into the foramen rotundum of the skull. The model simulates blunt force traumatic injury to the nerve, residual wound debris, or other irritation. […]
[…] Withdrawal thresholds were determined weekly with von Frey fiber stimulation on the snout. […]
Mechanical and cold sensitivity was modified for face as previously described (Montera M A, Westlund K N, Bio-protocol2020 April 20; 10(8):e3591-e3591; Lyons et al., Neuroscience 2015 Jun. 4; 295:126-138; Ma et al., Mol Brain 2012 Dec. 28; 5:44; Montera et al., Channels (Austin). 2021 December; 15(1):31-37). Briefly, animals were gently restrained and the mechanical threshold for nocifensive head withdrawal was determined using calibrated von Frey filaments (0.008 g-6.0 g) using the Up-Down method (Chaplan et al., J Neurosci Methods 1994 July; 53(1):55-63; FIG. 2). […]

FRICT-ION mice = assay: Cold probe (10° C.) sensitivity test, FRICT-ION model; settings: 5 mg/kg, vs FRICT-ION+vehicle
Excerpt: The FRICT-ION chronic neuropathic pain model combines the chemical irritation of chromic gut suture with some physical compression of the maxillary branch (V2) of the trigeminal nerve. FRICT-ION model was induced in 9-week-old mice anesthetized briefly with isoflurane (2-3%). Intraoral surgical incision was made with a small scalpel puncture at the buccal cheek crease. A piece of chromic gut suture (3 mm length, 4-0) was placed parallel to the infraorbital nerve (ION) and pushed into the tight space to follow the trigeminal nerve as it passes into the foramen rotundum of the skull. The model simulates blunt force traumatic injury to the nerve, residual wound debris, or other irritation.
On the day of FRICT-ION model induction in BALBc mice, LMK235 was administered and treatment was continued for seven days. Withdrawal thresholds were determined weekly with von Frey fiber stimulation on the snout. Cold sensitivity on the snout and anxiety were tested once prior to experiment end in week 8-9.
Mechanical and cold sensitivity was modified for face as previously described (Montera M A, Westlund K N, Bio-protocol2020 April 20; 10(8):e3591-e3591; Lyons et al., Neuroscience 2015 Jun. 4; 295:126-138; Ma et al., Mol Brain 2012 Dec. 28; 5:44; Montera et al., Channels (Austin). 2021 December; 15(1):31-37). […]

[3] = test system: HDAC5 and pain related genes in TG; assay: RT-PCR of TG gene expression
Experimental: To confirm that the anti-allodynic mechanism provided by LMK235 was accompanied by changes in RNA of specific pain relate genes, TG expression of several genes was assessed in the TG of LMK235-treated and untreated FRICT-ION groups to naïve controls with RT-PCR (FIG. 12).
Primers were ordered from Bio-Rad Laboratories, Inc. (Hercules, CA). Samples were run by UNM Human Tissue Repository Core facility. 400 μg of total RNA was transcribed into cDNA using iScript cDNA synthesis kit (Catalog #1708890, BioRad Laboratories, Inc., Hercules, CA, USA). Relative analysis of HDAC5 by Sybr Green qRT-PCR was run in order to validate the results observed via RNAseq. All primers, housekeeping gene primers, and the amplicon context sequence were purchased pre-validated from Bio-Rad Laboratories, Inc. (PrimePCR SYBR Green Assay: HDAC5, Mouse, qMmuCID0021326; Bio-Rad Laboratories, Inc., Hercules, CA). All qRT-PCR amplification reactions were done in 20 μl volumes in triplicate using iTaq Universal SYBR Green Supermix (Catalog #1725122, Bio-Rad Laboratories, Inc., Hercules, CA) in 96-well plates and run on a LightCycler 96 qRT-PCR system (Roche, Germany). The Amplification program used for amplification was an initial activation step of 95° C. for two minutes followed by 40 cycles at 95° C. for five seconds and 60° C. for 30 seconds, and concluding with a melt curve of 65° C.-95° C. with five seconds/step. qRT-PCR was done on the HDAC5 gene target and two housekeeping genes within each of the treated and untreated controls and experimental conditions. qRT-PCR data were analyzed using the 2-ΔΔcT method (Livak K J, Schmittgen T D, Methods 2001 December;25(4):402-408). Briefly, the mean ΔcT of each differentially expressed gene target assayed for, in both the experimental conditions and the untreated controls was calculated by subtracting the mean cT from the mean cT of the housekeeping genes values for each sample type. ΔΔcT was then calculated by subtracting the experimental ΔcT group from the control Act group. Expression fold change was expressed as 2-ΔΔcT.

[4] = LMK235-treated FRICT-ION mice, week 10

## Cc1cc(C)cc(C(=O)NOCCCCCC(=O)NO)c1 [LMK235, N-[[6-(Hydroxyamino)-6-oxohexyl]oxy]-3,5-dimethyl-benzamide]
[1]; C57BL/6 TIC mice, 5 mg/kg s.c., post-treatment 8 weeks after nerve injury, vs vehicle, 5 mg/kg
  mechanical threshold (von Frey), ipsilateral: significantly reversed; also recorded: significantly increased the mechanical threshold
[1]; TIC mice treated in week 8
  mechanical threshold (von Frey), contralateral side: complete return to naïve baseline
[1]; male C57BL/6 TIC mice, 5 mg/kg s.c. daily for seven days in week 3, vs vehicle, 5 mg/kg
  whisker pad mechanical threshold (von Frey): reversed to naïve baseline; also recorded: returned whisker pad mechanical threshold to naïve baseline
[1]; male C57BL/6 TIC mice, 5 mg/kg s.c. daily in week 3
  time mechanical threshold remained at naïve baseline: 4-6 weeks
[2]
  mechanical threshold / von Frey hypersensitivity: reverses von Frey hypersensitivity; also recorded: restored mechanical threshold to baseline
FRICT-ION mice
  cold hypersensitivity (10° C. cold probe on snout): significantly improved; also recorded: reduced
[3]; LMK235-treated FRICT-ION mice
  HDAC5 expression: reduced
  Hist1h2bc change: 1.4 fold
  Hist2h2aa1 change: 1.6 fold
[3]; [4]
  CCKBR RNA: normalized
  GNAI2 RNA: partially restored
  IFIT1 RNA: partially restored
  NTS RNA: normalized
  SCFN9 RNA: normalized
[3]; LMK235-treated naïve controls
  HDAC5 expression: reduced
[3]; LMK235-treated naïve mice
  changes in HDAC10 gene: not observed
  changes in HDAC11 gene: not observed
